Measured values reported in ChEMBL document CHEMBL1135074, “Two neolignans from Perilla frutescens and their inhibition of nitric oxide synthase and tumor necrosis factor-alpha expression in murine macrophage cell line RAW 264.7” (Bioorg Med Chem Lett, 2002).

Columns and labels:
[1] = test system: RAW; experiment: Tested for the inhibition of nitric oxide syntheses in murine macrophage cell line RAW 264.7 at a concentration of 30 uM; type: cell-based
[2] = test system: L929; experiment: Relative cytotoxicity measured as inhibition of LPS induced TNF alpha production in L929 cells at 10 uM; type: functional, Mus musculus; set-up: scale not given: the % may be the effect or the level left
[3] = Tested for the inhibition of nitric oxide syntheses in murine macrophage cell line RAW 264.7; type: cell-based
[4] = test system: RAW264.7; experiment: Tested for the inhibition of NO production in RAW 264.7 cells; type: functional, Mus musculus

**Q.** With COc1cc(OC)c([C@@H]2[C@@H](C)[C@H](C)[C@H]2c2cc(OC)c(OC)cc2OC)cc1OC as the molecule, how does the inhibition [1] read?
**A.** Its inhibition is 17%.

**Q.** And the Activity [2]?
**A.** The Activity was 26%.

**Q.** What about the IC50 [3] of the same molecule?
**A.** The IC50 was 5.9 µM.

**Q.** Which Activity [2] does the source give for COc1cc(OC)c([C@@H]2[C@H](C)[C@@H](C)[C@H]2c2cc(OC)c(OC)cc2OC)cc1OC [MAGNOSALIN] here?
**A.** Its Activity is 84%.

**Q.** What about the IC50 [3] of the same molecule?
**A.** Its IC50 is 53.5 µM.

**Q.** For N=C(N)NN [PIMAGEDINE], which Inhibition [4] is on record?
**A.** Its Inhibition is 79%.
